Laboratory results published in patent US20230072421A1, “TARGETED RADIOPHARMACEUTICALS FOR THE DIAGNOSIS AND TREATMENT OF PROSTATE CANCER” (Bayer AS, priority 2019, published 2023).

Biological target: T1, PSMA-expressing LNCaP cells (Homo sapiens, UniProt Q04609)
T1 construct: PSMA-expressing LNCaP cells; endogenous in cells; host or cells: LNCaP
Experiment: Binding competition assay against 3H-PSMA-617 on LNCaP cells
Conditions: for remaining activity at 0.01 µM / remaining activity at 0.1 µM: LNCaP cells, 10 nM 3H-PSMA-617, 2 h at 37° C., triplicates; for remaining activity at 0.01 µM: competing non-radiolabeled compound 10 nM; for remaining activity at 0.1 µM: competing non-radiolabeled compound 100 nM; for competition against 3H-PSMA-617 on PSMA-expressing LNCaP cells (in words): comparison between examples
Method: Cells were incubated at 37° C. and 5% CO2 over night. […] After addition of the compounds in growth media the cells were swiveled slightly on a shaker mixing for 10 min followed by incubation for 2 h at 37° C., 5% C02. Following the incubation time the supernatant was removed by pipetting and cells were washed twice with ice cold PBS (total of 800 μl). Cells were lysed in 500 μl of 0.3M NaOH (PanReac AppliChem ITW Reagents) by vigorous shaking for 15 min and the cell lysated pipetted into scintillator tubes (S207-[…]® Scintillation Vials 6.5 ml #S207, Simport). In the following the wells were washed with 500 μl PBS and the washing PBS added to the corresponding samples in the sincitallator tubes. To each sample in the scintillator tubes 4 mL of Ultima Gold liquid scintillation cocktail (Sigma-Aldrich #L8286) was added and the samples let stand for at least 30 min. Thereafter radioactivity was counted in a Tri-Carb Liquid Scinzillation Analyzer (Perkin Elmer).

T1 sequence (Q04609 whole entry): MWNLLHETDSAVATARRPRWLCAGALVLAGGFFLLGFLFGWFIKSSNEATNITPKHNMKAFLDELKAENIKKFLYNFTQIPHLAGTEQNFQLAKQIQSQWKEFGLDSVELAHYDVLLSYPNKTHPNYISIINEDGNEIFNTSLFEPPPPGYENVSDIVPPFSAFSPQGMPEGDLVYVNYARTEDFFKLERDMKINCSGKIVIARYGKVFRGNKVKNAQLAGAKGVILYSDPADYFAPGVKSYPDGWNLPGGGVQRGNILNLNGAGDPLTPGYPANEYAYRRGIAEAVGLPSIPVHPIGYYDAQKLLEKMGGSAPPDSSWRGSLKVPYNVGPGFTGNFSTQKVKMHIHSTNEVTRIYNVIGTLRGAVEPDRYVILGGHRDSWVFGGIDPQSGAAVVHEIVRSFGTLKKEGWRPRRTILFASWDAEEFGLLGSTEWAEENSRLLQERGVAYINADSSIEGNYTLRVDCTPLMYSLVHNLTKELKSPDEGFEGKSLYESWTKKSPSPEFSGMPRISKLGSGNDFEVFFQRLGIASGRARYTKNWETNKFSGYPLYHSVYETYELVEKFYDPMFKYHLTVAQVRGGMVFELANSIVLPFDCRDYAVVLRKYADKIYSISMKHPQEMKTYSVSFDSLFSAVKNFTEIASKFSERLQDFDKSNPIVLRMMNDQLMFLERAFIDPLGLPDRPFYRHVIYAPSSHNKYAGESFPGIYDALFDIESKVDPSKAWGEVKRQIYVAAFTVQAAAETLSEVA

| SMILES | remaining activity at 0.01 µM | remaining activity at 0.1 µM | competition against 3H-PSMA-617 on PSMA-expressing LNCaP cells (in words) |
| --- | --- | --- | --- |
| NCc1ccc(C(=O)N[C@@H](Cc2ccc3ccccc3c2)C(=O)NCCCC[C@H](NC(=O)N[C@@H](CCC(=O)O)C(=O)O)C(=O)O)nc1 [Example 25-A, (3S,10S,14S)-1-[5-(aminomethyl)pyridin-2-yl]-3-[(naphthalen-2-yl)methyl]-1,4,12-trioxo-2,5,11,13-tetraazahexadecane-10,14,16-tricarboxylic acid] | 93% | 21% | improved competition in comparison to the cyclohexyl examples 1-A and 1-B |
| NCc1ccc(C(=O)N[C@@H](Cc2ccc3ccccc3c2)C(=O)NCCCC[C@H](NC(=O)N[C@H](CCC(=O)O)C(=O)O)C(=O)O)nc1 [Example 25-A-D, (3S,10S,14R)-1-[5-(aminomethyl)pyridin-2-yl]-3-[(naphthalen-2-yl)methyl]-1,4,12-trioxo-2,5,11,13-tetraazahexadecane-10,14,16-tricarboxylic acid] | 79% | 67% | – |
| O=C(O)CC[C@H](NC(=O)N[C@@H](CCCCNC(=O)[C@H](Cc1ccc2ccccc2c1)NC(=O)c1ccc(CNC(=O)CN2CCN(CC(=O)O)CCN(CC(=O)O)CCN(CC(=O)O)CC2)cn1)C(=O)O)C(=O)O [Example 25-B, (3S,10S,14S)-3-[(naphthalen-2-yl)methyl]-1,4,12-trioxo-1-[5-({2-[4,7,10-tris(carboxymethyl)-1,4,7,10-tetraazacyclododecan-1-yl]acetamido}methyl)pyridin-2-yl]-2,5,11,13-tetraazahexadecane-10,14,16-tricarboxylic acid] | 54% | 5% | improved competition in comparison to the cyclohexyl examples 1-A and 1-B |
| NCc1ccc(C(=O)N[C@@H](Cc2ccc3ccccc3c2)C(=O)NCCCC[C@H](NC(=O)N[C@@H](CCC(=O)O)C(=O)O)C(=O)O)cn1 [Example 26-A, (3S,10S,14S)-1-[6-(aminomethyl)pyridin-3-yl]-3-[(naphthalen-2-yl)methyl]-1,4,12-trioxo-2,5,11,13-tetraazahexadecane-10,14,16-tricarboxylic acid] | 33% | 6% | improved competition in comparison to the cyclohexyl examples 1-A and 1-B |
| O=C(O)CC[C@H](NC(=O)N[C@@H](CCCCNC(=O)[C@H](Cc1ccc2ccccc2c1)NC(=O)c1ccc(CNC(=O)CN2CCN(CC(=O)O)CCN(CC(=O)O)CCN(CC(=O)O)CC2)nc1)C(=O)O)C(=O)O [Example 26-B, (3S,10S,14S)-3-[(naphthalen-2-yl)methyl]-1,4,12-trioxo-1-[6-({2-[4,7,10-tris(carboxymethyl)-1,4,7,10-tetraazacyclododecan-1-yl]acetamido}methyl)pyridin-3-yl]-2,5,11,13-tetraazahexadecane-10,14,16-tricarboxylic acid] | 53% | 6% | improved competition in comparison to the cyclohexyl examples 1-A and 1-B |
| NCc1cccc(C(=O)N[C@@H](Cc2ccc3ccccc3c2)C(=O)NCCCC[C@H](NC(=O)N[C@@H](CCC(=O)O)C(=O)O)C(=O)O)c1 [Example 27-A, (3S,10S,14S)-1-[3-(aminomethyl)phenyl]-3-[(naphthalen-2-yl)methyl]-1,4,12-trioxo-2,5,11,13-tetraazahexadecane-10,14,16-tricarboxylic acid] | 27% | 7% | – |
| O=C(O)CC[C@H](NC(=O)N[C@@H](CCCCNC(=O)[C@H](Cc1ccc2ccccc2c1)NC(=O)c1cccc(CNC(=O)CN2CCN(CC(=O)O)CCN(CC(=O)O)CCN(CC(=O)O)CC2)c1)C(=O)O)C(=O)O [Example 27-B, (3S,10S,14S)-3-[(naphthalen-2-yl)methyl]-1,4,12-trioxo-1-[3-({2-[4,7,10-tris(carboxymethyl)-1,4,7,10-tetraazacyclododecan-1-yl]acetamido}methyl)phenyl]-2,5,11,13-tetraazahexadecane-10,14,16-tricarboxylic acid] | 54% | 6% | – |
| Nc1ccc(-c2ccn(CC(=O)N[C@@H](Cc3ccc4ccccc4c3)C(=O)NCCCC[C@H](NC(=O)N[C@@H](CCC(=O)O)C(=O)O)C(=O)O)n2)cc1 [Example 28-A, (4S,11S,15S)-1-[3-(4-aminophenyl)-1H-pyrazol-1-yl]-4-[(naphthalen-2-yl)methyl]-2,5,13-trioxo-3,6,12,14-tetraazaheptadecane-11,15,17-tricarboxylic acid] | 107% | 60% | – |
| O=C(O)CC[C@H](NC(=O)N[C@@H](CCCCNC(=O)[C@H](Cc1ccc2ccccc2c1)NC(=O)Cn1ccc(-c2ccc(NC(=O)CN3CCN(CC(=O)O)CCN(CC(=O)O)CCN(CC(=O)O)CC3)cc2)n1)C(=O)O)C(=O)O [Example 28-B, (4S,11S,15S)-4-[(naphthalen-2-yl)methyl]-2,5,13-trioxo-1-[3-(4-{2-[4,7,10-tris(carboxymethyl)-1,4,7,10-tetraazacyclododecan-1-yl]acetamido}phenyl)-1H-pyrazol-1-yl]-3,6,12,14-tetraazaheptadecane-11,15,17-tricarboxylic acid] | 33% | 90% | – |
| NC[C@H]1CC[C@H](CNC(=O)N[C@@H](Cc2ccc3ccccc3c2)C(=O)NCCCC[C@H](NC(=O)N[C@@H](CCC(=O)O)C(=O)O)C(=O)O)CC1 [Example 29-A, (5S,12S,16S)-1-[(1r,4S)-4-(aminomethyl)cyclohexyl]-5-[(naphthalen-2-yl)methyl]-3,6,14-trioxo-2,4,7,13,15-pentaazaoctadecane-12,16,18-tricarboxylic acid] | 113% | 92% | – |
| O=C(O)CC[C@H](NC(=O)N[C@@H](CCCCNC(=O)[C@H](Cc1ccc2ccccc2c1)NC(=O)NCC1CCNCC1)C(=O)O)C(=O)O [Example 30-A, (5S,12S,16S)-5-[(naphthalen-2-yl)methyl]-3,6,14-trioxo-1-(piperidin-4-yl)-2,4,7,13,15-pentaazaoctadecane-12,16,18-tricarboxylic acid] | 136% | 96% | – |
| NC[C@H]1CC[C@H](C(=O)N[C@@H](Cc2ccc(Br)cn2)C(=O)NCCCC[C@H](NC(=O)N[C@@H](CCC(=O)O)C(=O)O)C(=O)O)CC1 [Example 31-A, N^6—{N-[(1r,4S)-4-(aminomethyl)cyclohexane-1-carbonyl]-3-(5-bromopyridin-2-yl)-L-alanyl}-N^2-{[(1S)-1,3-dicarboxypropyl]carbamoyl}-L-lysine] | 61% | 78% | – |
| NCc1ccc(C(=O)N[C@@H](Cc2cnc3ccccc3c2)C(=O)NCCCC[C@H](NC(=O)N[C@@H](CCC(=O)O)C(=O)O)C(=O)O)nc1 [Example 32-A, N^6—{N-[5-(aminomethyl)pyridine-2-carbonyl]-3-(quinolin-3-yl)-L-alanyl}-N^2-{[(1S)-1,3-dicarboxypropyl]carbamoyl}-L-lysine] | 84% | 46% | – |
| O=C(O)CC[C@H](NC(=O)N[C@@H](CCCCNC(=O)[C@@H](Cc1cnc2ccccc2c1)NC(=O)c1ccc(CNC(=O)CN2CCN(CC(=O)O)CCN(CC(=O)O)CCN(CC(=O)O)CC2)cn1)C(=O)O)C(=O)O [Example 32-B, N^6-{3-(quinolin-3-yl)-N-[5-({2-[4,7,10-tris(carboxymethyl)-1,4,7,10-tetraazacyclododecan-1-yl]acetamido}methyl)pyridine-2-carbonyl]-D-alanyl}-N^2-{[(1S)-1,3-dicarboxypropyl]carbamoyl}-L-lysine] | 88% | 35% | – |
| COc1c(C[C@@H](NC(=O)[C@H]2CC[C@H](CN)CC2)C(=O)NCCCC[C@H](NC(=O)N[C@@H](CCC(=O)O)C(=O)O)C(=O)O)ccc2ccccc12 [Example 33-A, (3R,10S,14S)-1-[(1r,4S)-4-(aminomethyl)cyclohexyl]-3-[(1-methoxynaphthalen-2-yl)methyl]-1,4,12-trioxo-2,5,11,13-tetraazahexadecane-10,14,16-tricarboxylic acid] | 66% | 72% | – |
| COc1c(C[C@@H](NC(=O)[C@H]2CC[C@H](CNC(=O)CN3CCN(CC(=O)O)CCN(CC(=O)O)CCN(CC(=O)O)CC3)CC2)C(=O)NCCCC[C@H](NC(=O)N[C@@H](CCC(=O)O)C(=O)O)C(=O)O)ccc2ccccc12 [Example 33-B, (3R,10S,14S)-3-[(1-methoxynaphthalen-2-yl)methyl]-1,4,12-trioxo-1-[(1r,4S)-4-({2-[4,7,10-tris(carboxymethyl)-1,4,7,10-tetraazacyclododecan-1-yl]acetamido}methyl)cyclohexyl]-2,5,11,13-tetraazahexadecane-10,14,16-tricarboxylic acid] | 114% | 40% | – |
| COc1c(C[C@@H](NC(=O)c2ccc(CNC(=O)CN3CCN(CC(=O)O)CCN(CC(=O)O)CCN(CC(=O)O)CC3)cn2)C(=O)NCCCC[C@H](NC(=O)N[C@@H](CCC(=O)O)C(=O)O)C(=O)O)ccc2ccccc12 [Example 33a-B, (3R,10S,14S)-3-[(1-methoxynaphthalen-2-yl)methyl]-1,4,12-trioxo-1-[5-({2-[4,7,10-tris(carboxymethyl)-1,4,7,10-tetraazacyclododecan-1-yl]acetamido}methyl)pyridin-2-yl]-2,5,11,13-tetraazahexadecane-10,14,16-tricarboxylic acid] | 74% | 42% | – |
